US10793601B2, “Therapeutic spalt-like transcription factor 4 (SALL4) peptide” (National University of Singapore, priority 2016, dated 2020)

Key:
PTEN = PTEN transcript level by quantitative real-time PCR in SNU398 cells; format: cell-based; settings: Q-PCR
RBBp4 [1] = molecular target: T1, RBBp4 (Homo sapiens, UniProt Q09028); assay: Isothermal titration calorimetry (ITC) of SALL4 peptide against RBBp4; settings: 25° C., 1:1 binding model
T1 construct: purchased SinoBiological
Procedure: (§1) FIGS. 1A-1B. Binding affinity of WT SALL4 (1-12 aa) to RBBp4.
ITC was carried out with an Auto-iTC200 instrument from Microcal Inc. at 25° C. […] of RBBp4 in 50 mM Tris and 100 mM NaCl at pH 7.4 was loaded into the ITC cell. Sal14 peptide at […] was auto-loaded into the syringe. The titration was carried out with 18 injections of 2.4 μl, performed over a period of 30 min with stirring at 1000 rpm. The ITC data was analysed using Origin software from Microcal.

SNU398 cells = assay: Cell viability assay in SNU398 cells; format: cell-based; settings: SNU398, Pep-1 carrier added
Procedure: (§2) FIGS. 3A-3E. Key residues involved in SALL4 (1-12)-RBBp4 binding. […] The difference in the binding free energy (ΔΔGbind) of the alanine mutants (ΔGmutant, Ala7 was mutated to glycine) and wild type (ΔGwild type) was calculated (ΔΔGbind=ΔGmutant−ΔGwild type). ΔΔGbind was tabulated (left) and plotted in a bar chart (right). […] Mutated residues are highlighted in red. The IC50 of each peptide, including WT, was determined by Fluorescence Polarization (FP). Different concentrations of each peptide were titrated into a mixture of 0.04 μM RBBp4 and 0.01 μM of C-labelled FITC-SALL4 WT peptide. Polarization was measured in mP. […] Pep-1 carrier was added to the peptide to facilitate cellular penetration of the peptides.
FIGS. 5A-5B. Development of a potent therapeutic peptide FFW.
SNU398 was grown in RPMI supplemented with 10% fetal bovine serum (FBS) at 37° C. in a humidified atmosphere of 5% CO2. 3000 cells were seeded in each well of a 96 well plate with 100 μL of medium. Before peptide treatment, cells were washed twice with PBS and treated with different concentrations of peptide in OPTIMEM (LifeTech). Media was added after 4 hrs of incubation at 37° C., and cells incubated for another 68 hrs. Tetrazolium (CellTiter96 AQueous One Solution Cell Proliferation Assay, Promega) was added after 72 hrs incubation with the peptides, and the plate was read at a plate reader at 490 nm after 1 hr of incubation in the dark at 37° C.

RBBp4 [2] = molecular target: T1, RBBp4; assay: Surface plasmon resonance (SPR), RBBp4 immobilised on CM5 chip; format: binding
Procedure: as §1
SPR studies were performed using a Biacore T200 biosensor (GE Healthsciences). ˜12,000 resonance units (RU) of RBBp4 were immobilised by amine coupling to the carboxymethylated dextran matrix of a Series S CM5 chip (Biacore, GE Healthcare). Multi cycle kinetics analysis was performed at 25° C. through seven injections of SALL4 peptide (0.5 μM-8 μM). The association time and flow rate were set at 60 s and 30 μl/min respectively. The sensograms obtained were of good quality and kinetic rate constants were determined by curve fitting.

SNU398 = assay: RNA-seq transcriptome analysis of treated SNU398; format: cell-based
Procedure: SNU398 were treated PEN, PEN-MUT, PEN-WT & PEN-FFW for 8 hrs and paired-end RNA-seq was performed for the treated samples. RNA-seq reads of each sample were mapped to hg19 using the STAR aligner. Normalization between the samples was based on the proportionality of the numbers of the mapped reads. The expression fold change of a transcript was obtained using linear regression of the reads between the two samples cross all exons. Differential expression between two samples was selected by using the fold change cut off of 2. Hierarchical clustering was performed based on average linkage to generate the clustering tree as well as heat maps. For identification of enriched gene sets or pathways, Gene Set Enrichment Analysis (GSEA) was performed based on the normalized data and using the GSEA tool (broad.mit.edu/gsea/) with msigdb.v5.0.

RBBp4 [3] = molecular target: T1, RBBp4; assay: Fluorescence polarization (FP) competition with FITC-labelled SALL4 WT peptide; format: binding; settings: displacement of FITC-SALL4 WT peptide from RBBp4
Procedure: as §2
Peptides were titrated into a master mix of 0.045 μM RBBp4 and […] C-terminal FITC-labelled WT peptide (synthesized by Thermo Scientific). Reactions were incubated at room temperature before the plate was read with an Envision instrument (Perkin Elmer). IC50 values of peptides were determined using Prism (GraphPad).

T1 sequence (Q09028 whole entry): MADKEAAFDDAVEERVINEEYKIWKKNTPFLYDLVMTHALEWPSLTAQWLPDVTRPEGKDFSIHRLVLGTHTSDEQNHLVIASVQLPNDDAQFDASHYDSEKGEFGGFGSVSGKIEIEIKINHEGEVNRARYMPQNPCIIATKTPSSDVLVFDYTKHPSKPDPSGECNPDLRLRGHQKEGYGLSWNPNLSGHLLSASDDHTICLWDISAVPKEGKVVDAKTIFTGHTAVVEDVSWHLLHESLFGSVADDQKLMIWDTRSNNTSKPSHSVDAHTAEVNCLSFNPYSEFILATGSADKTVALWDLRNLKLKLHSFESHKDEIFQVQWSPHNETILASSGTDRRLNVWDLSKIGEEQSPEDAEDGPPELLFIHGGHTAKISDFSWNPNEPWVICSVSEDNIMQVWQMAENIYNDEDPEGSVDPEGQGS

Substance: Ac-MSRRKQAKPQHI-NH2 [Peptide 1, reference compound]
- increase in PTEN expression compared to untreated cells (PTEN): 3 fold
- Kd (RBBp4 [1]): 1040 ± 60 nM
- effect on cell number (SNU398 cells): exerts an inhibitory effect on cell number
- koff (RBBp4 [2]): 0.026 ± 0.00045 s⁻¹
- kon (RBBp4 [2]): 16800 ± 460 M⁻¹ s⁻¹
- log2 fd versus Contr (PEN + Mut), ADORA2A-AS1 (SNU398; gene ADORA2A-AS1, SNU398, 8 hrs): 1.05
- log2 fd versus Contr (PEN + Mut), AVPR2 (SNU398; gene AVPR2, SNU398, 8 hrs): 0.11
- log2 fd versus Contr (PEN + Mut), CSAD (SNU398; gene CSAD, SNU398, 8 hrs): 0.25
- log2 fd versus Contr (PEN + Mut), DNASE1L2 (SNU398; gene DNASE1L2, SNU398, 8 hrs): 0.42
- log2 fd versus Contr (PEN + Mut), LOC619207 (SNU398; gene LOC619207, SNU398, 8 hrs): 0.36
- log2 fd versus Contr (PEN + Mut), NEIL1 (SNU398; gene NEIL1, SNU398, 8 hrs): 0.30
- log2 fd versus Contr (PEN + Mut), PRKXP1 (SNU398; gene PRKXP1, SNU398, 8 hrs): 0.62
- log2 fd versus Contr (PEN + Mut), SSPO (SNU398; gene SSPO, SNU398, 8 hrs): 0.99
- IC50 (RBBp4 [3]): 1040 ± 200 nM
